Data as given in patent US5145960A, “Pyrimidinyl tetrahydrofurans” (priority 1991, dated 1992).

Columns and labels:
Assay type in all cases: cell-based
[1] = test system: VZV (varicella-zoster virus), strain Ellen; assay: VZV (strain Ellen) plaque reduction in WI-38 cell monolayers; conditions: Human alphaherpesvirus 3; WI-38 cells; at least 50% plaque reduction; 5-7 days at 37° C.; read-out: ID50 VZV (strain Ellen)
[2] = test system: HSV-1 (herpes simplex virus type 1); assay: HSV-1 (strain schooler) plaque reduction in WI-38 cell monolayers; conditions: Human alphaherpesvirus 1, 96 h; WI-38 cells; at least 50% plaque reduction; 4 days at 37° C.; read-out: ID50 HSV-1 (strain schooler)
[3] = test system: HCMV (human cytomegalovirus); assay: HCMV (strain AD169) plaque reduction in WI-38 cell monolayers; conditions: Human betaherpesvirus 5, AD169; WI-38 cells; at least 50% plaque reduction; 5-7 days at 37° C.; read-out: ID50 HCMV (strain AD169)
VV (vaccinia virus) = assay: microbe, parasite or virus in culture; conditions: Orthopoxvirus vaccinia, WI-38, 96 h, read-out: ID50 VV (strain CL)
[4] = test system: HSV-2 (herpes simplex virus type 2); assay: HSV-2 (strain 186) plaque reduction in WI-38 cell monolayers; conditions: Human alphaherpesvirus 2, 96 h; WI-38 cells; at least 50% plaque reduction; 4 days at 37° C.; read-out: ID50 HSV-2 (strain 186)
[5] = test system: VZV (varicella-zoster virus), strain Oka; assay: VZV (strain Oka) plaque reduction in WI-38 cell monolayers; conditions: Human alphaherpesvirus 3, WI-38, read-out: ID50 VZV (strain Oka)

SMILES | IC50 [1] | IC50 [2] | IC50 [3] | IC50 (VV (vaccinia virus)) | IC50 [4] | IC50 [5]
Nc1ccn([C@@H]2CO[C@H](CO)[C@H]2CO)c(=O)n1 [Example 6, [3S-(3α,4β,5α)]-4-Amino-1-[tetrahydro-4,5-bis(hydroxymethyl)-3-furanyl]-2(1H)-pyrimidinone] | 0.2 to 0.4 µM | 21 to 41 µM | 41 to 104 µM | 41 to 415 µM | 21 to 41 µM | 
O=c1[nH]c(=O)n([C@@H]2CO[C@H](CO)[C@H]2CO)cc1/C=C/Br [Example 7, [3S-(3α(E),4β,5α)]-5-(2-Bromoethenyl)-1-[tetrahydro-4,5-bis(hydroxymethyl)-3-furanyl]-2,4(1H,3H)-pyrimidinedione] | > 288 µM | 1.4 to 2.8 µM | > 288 µM |  | > 288 µM | 1.4 µM
O=c1ccn([C@@H]2CO[C@H](CO)[C@H]2CO)c(=O)[nH]1 [Example 4, [3S-(3α,4β,5α)]-1-[Tetrahydro-4,5-bis(hydroxymethyl)-3-furanyl]-2,4(1H,3H)-pyrimidinedione] | 41 to 103 µM | > 413 µM | > 413 µM |  | > 413 µM | 
Cc1cn([C@@H]2CO[C@H](CO)[C@H]2CO)c(=O)[nH]c1=O [Example 3, [3S-(3α,4β,5α)]-5-Methyl-1-[tetrahydro-4,5-bis(hydroxymethyl)-3-furanyl]-2,4(1H,3H)-pyrimidinedione] | 8 to 19 µM | 2 to 4 µM | > 390 µM |  | 195 to 390 µM | 
Nc1nc2c(ncn2[C@@H]2CO[C@H](CO)[C@H]2CO)c(=O)[nH]1 [Example 1, [3S-(3α,4β,5α)]-2-Amino-1,9-dihydro-9-[tetrahydro-4,5-bis(hydroxymethyl)-3-furanyl]-6H-purin-6-one] | 18 to 36 µM | 7 µM | 356 µM | > 356 µM | 1.8 µM | 
Nc1ncnc2c1ncn2[C@@H]1CO[C@H](CO)[C@H]1CO [Example 2, [3S-(3α,4β,5α)]-9-[Tetrahydro-4,5-bis(hydroxymethyl)-3-furanyl]-9H-purin-6-amine] | 1.9 to 3.8 µM | 3.8 to 7.5 µM | 1.9 to 3.8 µM | 8 to 19 µM | 3.8 to 7.5 µM | 
Cc1cn([C@@H]2CO[C@H](CO)[C@H]2CO)c(=O)nc1N [Example 8, [3S-(3α,4β,5α)]-4-Amino-5-methyl-1-[tetrahydro-4,5-bis(hydroxymethyl)-3-furanyl]-2(1H)-pyrimidinone] | 40 µM | 293 µM | > 392 µM |  | 392 µM | 
Nc1nc(=O)n([C@@H]2CO[C@H](CO)[C@H]2CO)cc1I [Example 9, [3S-(3α,4β ,5α)]-4-Amino-5-iodo-1-[tetrahydro-4,5-bis(hydroxymethyl)-3-furanyl]-2(1H)-pyrimidinone] | 5 to 14 µM | 68 to 136 µM | > 272 µM |  | > 272 µM | 
O=c1[nH]c(=O)n([C@@H]2CO[C@H](CO)[C@H]2CO)cc1I [Example 5, [3S-(3α,4β,5α)]-5-Iodo-1-[tetrahydro-4,5-bis(hydroxymethyl)-3-furanyl]-2,4(1H,3H)-pyrimidinedione] | 27 to 68 µM | 68 to 136 µM | > 272 µM |  | > 272 µM | 
